Measurements as given in ChEMBL document CHEMBL5226359, “Recent research and development of inhibitors targeting sentrin-specific protease 1 for the treatment of cancers” (Eur J Med Chem, 2022).

Key:
[1] = biological target: T1, Sentrin-specific protease 1 (Homo sapiens, UniProt Q9P0U3); assay: Inhibition of human full-length recombinant SENP1
T1 sequence (Q9P0U3 whole entry): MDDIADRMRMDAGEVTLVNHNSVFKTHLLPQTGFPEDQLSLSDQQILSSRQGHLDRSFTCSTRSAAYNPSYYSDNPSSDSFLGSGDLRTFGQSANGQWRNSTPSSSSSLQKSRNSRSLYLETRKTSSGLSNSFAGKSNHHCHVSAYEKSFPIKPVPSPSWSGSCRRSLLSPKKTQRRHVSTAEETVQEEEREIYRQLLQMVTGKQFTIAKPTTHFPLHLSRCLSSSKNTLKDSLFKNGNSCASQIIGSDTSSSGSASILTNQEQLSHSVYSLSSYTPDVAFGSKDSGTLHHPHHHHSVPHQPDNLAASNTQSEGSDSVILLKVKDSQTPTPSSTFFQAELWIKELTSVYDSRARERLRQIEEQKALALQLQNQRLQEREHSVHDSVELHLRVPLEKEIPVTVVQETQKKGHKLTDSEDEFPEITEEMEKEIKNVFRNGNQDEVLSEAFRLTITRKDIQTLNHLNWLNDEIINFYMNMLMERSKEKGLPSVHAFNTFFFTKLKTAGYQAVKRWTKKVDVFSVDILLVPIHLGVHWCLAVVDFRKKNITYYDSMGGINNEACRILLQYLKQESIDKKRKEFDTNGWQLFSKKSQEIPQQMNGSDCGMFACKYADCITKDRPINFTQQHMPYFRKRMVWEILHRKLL

[2] = biological target: T1, Sentrin-specific protease 1; assay: Inhibition of SENP1 (unknown origin)

**Q.** With `O=C(Cc1ccccc1)Oc1c(OC(=O)Cc2ccccc2)c(-c2ccc(O)cc2)c(O)c(O)c1-c1ccc(O)cc1` [VIALININ A] as the molecule, how does the IC50 [1] read?
**A.** 1.6 µM

**Q.** `Cc1cc(OCC(=O)Nc2nonc2NC(=O)COc2ccc(Cl)c(C)c2)ccc1Cl` was tested. Which IC50 [2] did it give?
**A.** > 30 µM

**Q.** `CCCCOc1ccc(-c2nonc2NC(=O)COc2ccccc2C)cc1` was tested. Which IC50 [2] did it give?
**A.** > 30 µM
